Read-outs that look alike come from different tables or passages of the source.
How the values were obtained:
[1] = 15% relative humidity and 23° C.
Method: A method of measuring electrostatic nature is a tribogeneration where relative charge on the powdered sample is measured with an electrometer equipped with a Faraday cup (NanoCoulumb Meter, Model 284, Monroe Electronics, USA). Prior to measurement, the charge is generated by strongly vibrating the sample (approximately 3 g) on a dry Petri dish (D=24 cm) for 2 minutes. The charged sample is then transferred to a Faraday cup of the electrometer with a plastic spoon and its charge is measured by an electrometer. After the charge measurement the sample is weighted and the relative charge calculated. All measurements are performed at controlled dry atmosphere conditions (15% relative humidity and 23° C.).

[2] = SEM image, N=200 crystals
Method: The shape of crystals is determined by an analysis of an image, taken by the scanning electron microscope (SEM), JEOL JXA840A at magnification 500-2000×. The length/width ratio of the crystal habit is determined by measuring length and width of a representative sample (N=200) of crystals on the image, using the image analyzing software Olympus DP-Soft, v-3.2. The length/width ratio is calculated independently for each crystal. Finally, the number average of the ratio is determined and optionally histogram calculated.

| Structure (SMILES) | chargeab. (chargeability by tribogeneration) [1] | a (length of crystals) [2] [μm] | a:b (length/width ratio, number average) [2] | b (width of crystals) [2] [μm] | chargeab. (chargeability by tribogeneration) ([1]; listed as 1649) | chargeab. (chargeability by tribogeneration) ([1]; listed as 3913D) |
| --- | --- | --- | --- | --- | --- | --- |
| CCCCC1=NC2(CCCC2)C(=O)N1Cc1ccc(-c2ccccc2-c2nnn[nH]2)cc1 [Example 4, 2-n-butyl-4-spirocyclopentane-1-[((2′-tetrazol-5-yl)biphenyl-4-yl)methyl]-2-imidazolin-5-one] | −27.5 ± 5.6 10^−9 As/g | 130 ± 96 | 17 ± 12.9 | 7.9 ± 3.4 | – | – |
| CCCCC1=NC2(CCCC2)C(=O)N1Cc1ccc(-c2ccccc2-c2nnn[nH]2)cc1 [Example 2, 2-n-butyl-4-spirocyclopentane-1-[((2′-tetrazol-5-yl)biphenyl-4-yl)methyl]-2-imidazolin-5-one] | −32 ± 4.6 10^−9 As/g | 78 ± 68 | 13.4 ± 1.9 | 6.7 ± 2.8 | – | – |
| CCCCC1=NC2(CCCC2)C(=O)N1Cc1ccc(-c2ccccc2-c2nnn[nH]2)cc1 [Example 6, 2-n-butyl-4-spirocyclopentane-1-[((2′-tetrazol-5-yl)biphenyl-4-yl)methyl]-2-imidazolin-5-one] | −27.9 ± 2.8 10^−9 As/g | 32 ± 32 | 22 ± 18 | 1.4 ± 0.6 | – | – |
| CCCCC1=NC2(CCCC2)C(=O)N1Cc1ccc(-c2ccccc2-c2nnn[nH]2)cc1 [Example 1, 2-n-butyl-4-spirocyclopentane-1-[((2′-tetrazol-5-yl)biphenyl-4-yl)methyl]-2-imidazolin-5-one] | −33.7 ± 15 10^−9 As/g | 14.9 ± 10.1 | 13 ± 10 | 1.2 ± 1.4 | – | – |
| CCCCC1=NC2(CCCC2)C(=O)N1Cc1ccc(-c2ccccc2-c2nnn[nH]2)cc1 [Example 7, 2-n-butyl-4-spirocyclopentane-1-[((2′-tetrazol-5-yl)biphenyl-4-yl)methyl]-2-imidazolin-5-one] | −26.5 ± 6 10^−9 As/g | 21 ± 17 | 13 ± 9 | 2.6 ± 1.0 | −26.5±6 10^−9 As/g | – |
| CCCCC1=NC2(CCCC2)C(=O)N1Cc1ccc(-c2ccccc2-c2nnn[nH]2)cc1 [Example 5, 2-n-butyl-4-spirocyclopentane-1-[((2′-tetrazol-5-yl)biphenyl-4-yl)methyl]-2-imidazolin-5-one] | −17.1 ± 2.9 10^−9 As/g | 58 ± 50 | 9.5 ± 8 | 6.4 ± 1.2 | – | – |
| CCCCC1=NC2(CCCC2)C(=O)N1Cc1ccc(-c2ccccc2-c2nnn[nH]2)cc1 [Example 3, 2-n-butyl-4-spirocyclopentane-1-[((2′-tetrazol-5-yl)biphenyl-4-yl)methyl]-2-imidazolin-5-one] | −45.8 ± 4.9 10^−9 As/g | 20.7 ± 17.4 | 23.3 ± 23 | 1.0 ± 0.5 | – | 45.8±4.9 10^−9 As/g |

From patent publication US20090208573A1, “NOVEL POLYMORPH FORM OF IRBESARTAN” (LEK PHARMACEUTICALS D.D, priority 2004, published 2009)
